Experimental findings from paper PMC6891263, “Alkaloids with Nitric Oxide Inhibitory Activities from the Roots of Isatis tinctoria” (Molecules, 2019) are described below.

Data set [1] relates to nitric oxide (NO) production, LPS-stimulated RAW264.7 macrophages. Put plainly: Inhibitory assay of NO production (Griess reagent) in LPS-stimulated RAW264.7 macrophages. The format is cell-based. Particulars: LPS 100 ng/mL for 24 h, 30 min pretreatment, mean ± SD (n = 3). How it is done:
NO is a messenger molecule that is widespread in cells and can affect a variety of physiological and pathological processes. The production of NO causes tissue damage and can trigger a variety of inflammatory diseases. LPS induces the release of NO from RAW264.7 cells by detecting the release of NO widely used to investigate the anti-inflammatory effects of the compounds [2, 10, 40]. […]
Inhibitory Assay of NO Production […]
(§1) Compounds 1-23 were dissolved in dimethyl sulfoxide (DMSO) and diluted with complete medium to 6 degrees of concentration […]
were maintained in Dulbecco’s modified Eagle’s medium (high-glucose condition) supplemented with 10% fetal calf serum, 100 U/mL penicillin, and 100 μg/mL streptomycin at 37 °C in 5% CO 2. RAW 264.7 cells were pretreated with each tested compound for 30 min, and then stimulated with lipopolysaccharide (LPS) (100 ng/mL) for 24 h. Aminoguanidine hydrochloride (100 μM) was used as a positive control. The NO production was measured using the Griess reagent. Briefly, the cell culture supernatant was reacted with equal volumes of Griess reagent in a 96-well plate for 10 min, and then the absorbance at 540 nm was measured by a plate reader. All experiments were performed in triplicate. All tested compounds were prepared as stock solutions with a concentration of 10 mM in DMSO. […]

The test system of another data set is RAW264.7 cells. Description: Cytotoxicity by Cell Counting Kit-8 (CCK-8). Particulars: CCK-8, tested at 25, 50 and 100 μM. How it is done:
Inhibitory Assay of NO Production
Cytotoxicity was examined using the Cell Counting Kit-8 (CCK-8). RAW264.7 cells were taken from logarithmic growth stage and the cell density reached above 80%. And then, the cells were inoculated on 96-well cell culture plates at […], with 3 ×10^4 cells per well, cultured overnight at 37 °C with 5% CO 2. After 24h, the culture medium in the 96-well plate was discarded, the solution was changed and different concentrations (25 μM, 50 μM and 100 μM) of drugs were added. The absorbance at 450 nm was measured using a microplate reader (Thermo Fisher Scientific). Viability was defined as the ratio (expressed as a percentage) of absorbance values of treated cells to untreated cells.
as §1
were maintained in Dulbecco’s modified Eagle’s medium (high-glucose condition) supplemented with 10% fetal calf serum, 100 U/mL penicillin, and 100 μg/mL streptomycin at 37 °C in 5% CO 2. […]

Setting [2] is: Mus musculus, RAW264.7, RAW 264.7 cell line.

With “2-(1H-indol-2-yl)-4(3H)-quinolinone [Compound 8]”, the half-maximal inhibitory concentration (IC50) in data set [1] (RAW 264.7 cell line) was over 100 µM.

Consider `Cl.N=C(N)NN` [AG, aminoguanidine hydrochloride, reference compound], for which the Cytotoxicity with RAW264.7 cells is over 100 µM. The IC50 in data set [1] (RAW 264.7 cell line) worked out at 22.7 ± 0.4 µM. In the data set on RAW264.7 cells, `O=c1cc(-c2ccc(O)cc2)c2cc(O)ccc2[nH]1` [Compound 1, Isatisindigoticanine E] came in with a Cytotoxicity of over 100 µM. Also, the IC50 in data set [1] (setting [2]) was over 100 µM. Turning to `COc1cccc2[nH]c(=O)cc(-c3cc4ccccc4[nH]3)c12` [Compound 2, Isatisindigoticanine F], the Cytotoxicity with RAW264.7 cells was over 100 µM. Further, the IC50 in data set [1] (setting [2]) was over 100 µM. For `O=c1c2ccccc2nc2n1CCC(c1c[nH]c3ccccc13)=C2` [Compound 3, Isatisindigoticanine G], in that order: over 100 µM and over 100 µM. In the case of `O=c1cc(-c2ccc(O)cc2)c2ccccc2[nH]1` [Compound 4, 4-p-hydroxyphenyl-2(1H)-quinolinone], the Cytotoxicity in the data set on RAW264.7 cells is over 100 µM. Besides, in data set [1] (setting [2]), the IC50 was over 100 µM. For `COc1ccc2nc(-c3cc4ccccc4[nH]3)[nH]c(=O)c2c1` [Compound 5, 2-(1H-indol-2-yl)-6-methoxy-4(3H)-quinazolinone], in that order: over 100 µM and over 100 µM. Turning to `O=c1[nH]c(-c2ccccc2O)nc2ccccc12` [Compound 6, 2-(2-hydroxyphenyl)-4(3H)-quinazolinone], the Cytotoxicity in the data set with RAW264.7 cells is over 100 µM. Further, in data set [1] (setting [2]), the IC50 was over 100 µM. For `C=CCCc1nc2ccccc2c(=O)[nH]1` [Compound 7, 2-(but-3-en-1-yl)-4(3H)-quinazolinone], in that order: over 100 µM and over 100 µM. Compound `O=C(O)CCn1c(=O)[nH]c2ccccc2c1=O` [Compound 10, 3-(2,4-dioxo-1,2-dihydroquinazolin-3(4H)-yl)propanoic acid] had a Cytotoxicity in the data set with RAW264.7 cells of over 100 µM. Also, the IC50 in data set [1] (setting [2]) was over 100 µM. The corresponding values for `O=c1[nH]c2ccccc2c(=O)n1CCCCO` [Compound 11, indiforine C] are over 100 µM and over 100 µM. The corresponding values for `O=C(O)CCCn1c(=O)[nH]c2ccccc2c1=O` [Compound 12, 4-(2,4-dioxo-1,2-dihydroquinazolin-3(4H)-yl)butanoic acid] are over 100 µM and over 100 µM. In the data set with RAW264.7 cells, `COC(=O)CCCn1c(=O)[nH]c2ccccc2c1=O` [Compound 13, methyl 4-(2,4-dioxo-1,2-dihydroquinazolin-3(4H)-yl)butanoate] returned a Cytotoxicity of over 100 µM. For the same compound, the IC50 in data set [1] (setting [2]) was over 100 µM. For `O=c1c2ccccc2ncn1-c1ccccc1O` [Compound 14, 3-(2-hydroxyphenyl)-4(3H)-quinazolinone], in that order: over 100 µM and over 100 µM. The corresponding values for `O=C(O)c1ccccc1-n1cnc2ccccc2c1=O` [Compound 15, 3-(2-carboxyphenyl)-4(3H)-quinazolinone] are over 100 µM and 5 ± 1.3 µM.

For the compound `Cc1nc(O)nc2ccccc12` [Compound 16, 4-methyl-1,2-dihydro-2-oxoquinazoline], the Cytotoxicity with RAW264.7 cells is over 100 µM. For the same compound, in data set [1] (setting [2]), the IC50 is over 100 µM. `Cc1nc2ccccc2c(=O)[nH]1` [Compound 17, 2-methyl-4(3H)-quinazolinone]: the Cytotoxicity in the data set with RAW264.7 cells is over 100 µM. The compound `Cc1c(O)c2ccccc2[nH]c1=O` [Compound 18, 4-hydroxy-3-methyl-2(1H)-quinolinone] yielded a Cytotoxicity with RAW264.7 cells of over 100 µM. Besides, the IC50 in data set [1] (setting [2]) was over 100 µM. For `Nc1cc(C(=O)O)c2ccccc2n1` [Compound 19, 2-amino-4-quinolinecarboxylic acid], in that order: over 100 µM and over 100 µM. In the data set on RAW264.7 cells, `Oc1ccnc2ccccc12` [Compound 20, 4(1H)-quinolinone] came in with a Cytotoxicity of over 100 µM. `O=C(O)c1cnc2ccccc2c1O` [Compound 21, 4(1H)-quinolone-3-carboxylic acid] yielded a Cytotoxicity in the data set with RAW264.7 cells of over 100 µM. Besides, in data set [1] (setting [2]), the IC50 is over 100 µM. The corresponding values for `NC(=O)C(c1[nH]c2ccccc2c1OC1OC(CO)C(O)C(O)C1O)c1c[nH]c2ccccc12` (centres unmarked) [Compound 23, Isatindigoside D] are over 100 µM and over 100 µM.
